From PubChem BioAssay AID1963432 (Molecular Pharmacology Branch, DTP, NCI, 2024)

Tested on: SYO-1 complex spheroid growth, percent test/control
Assay: Anticancer human tumor SYO-1 cell line growth inhibition [Asc];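 also: compound exposure lasted 7 days after spheroids grew 3 days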;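 as to viability, T/C: 100% = DMSO vehicle control viability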
Conditions: for IC50: curve of first compound; for viability, T/C: stronger effect = lower value; active = viability on the fitted dose curve at most 10% of control; inactive = the rest
Description: Multicellular complex tumor spheroid response to apoptosis pathway targeting inhibitors Alrizomadlin, Pelcitoclax, and Dasminapant in combination with a variety of drugs and investigational agents in selected tumor cell lines
The MDM2 inhibitor alrizomadlin, the Bcl-2/Bcl-xL inhibitor pelcitoclax, and the IAPs inhibitor dasminapant were evaluated both individually and in combination with standard of care and investigational anticancer small molecules within a complex spheroid model of solid tumors. . Complex spheroids include a stromal component modeled by human endothelial cells (HUVEC) and fibroblasts modeled by human mesenchymal stem cells (MSCs). The concentration ranges selected for each drug and investigational agent were based upon clinically achievable concentrations if the clinical Cmax of the agent was known.
Compounds. The drugs and investigational agents: alrizomadlin (APG-115; NSC831270), pelcitoclax (APG-1252; NSC835773), dasminapant (APG-1387;NSC834197), TAK-243 (NSC785004), copanlisib (NSC809693), olaparib (NSC753686), talazoparib (NSC767125), cobimetinib (NSC 768068), eltanexor (KPT-8602, NSC 794443), abemaciclib (NSC 768073), sotorasib (NSC818433), adagrasib (NSC 831453), MRTX-1133 (NSC 836407), Iadademestat (ORY1001, NSC 806812), and RMC-4630 (NSC839698), were obtained from the NCI Developmental Therapeutics Program Chemical Repository. The FDA-approved anticancer drug set is available from the Developmental Therapeutics Program at https://dtp.cancer.gov/organization/dscb/obtaining/available plates.htm. […] The stock solutions were prepared in dimethyl sulfoxide (DMSO, Sigma-Aldrich, St. Louis, MO, cat. D2650) at 800-fold the tested concentration and stored at -70 degrees C prior to their use. All drugs and investigational agents were tested over a range starting from a high concentration at or near the clinical Cmax and decreasing in half-log increments. If the clinical Cmax for an agent had not been determined, the highest concentration tested was 10 microM.
The patient-derived cancer (PDC) cell lines include five colon adenocarcinomas: 186277-243-T-J2-PDC, 616215-338-R-J1-PDC, 439559-082-T-J2-PDC, 463943-066-T-J2-PDC, and 519858-162-T-J1-PDC; three pancreatic carcinomas: 323965-272-R-J2-PDC, 521955-158-R6-J3-PDC, and 521955-158-R2-J5-PDC; two uterine sarcomas: 327498-152-R-J2-PDC and 993429-296-R-J1-PDC; two rhabdomyosarcomas: 755483-174-R-J1-PDC and 772245-204-R-J1-PDC; two soft tissue sarcomas: 126254-015-R-J1-PDC and 494315-158-R-J1-PDC; two malignant fibrous histiocytomas: 317291-083-R-J1-PDC and 596521-263-R-J1-PDC; two breast carcinomas: 171881-019-R-J1-PDC and 885512-296-R-J2-PDC; and one ovarian carcinoma: 6556581-035-R-J-PDC were obtained from the NCI PDMR, (https://pdmr.cancer.gov). The established cell lines HSSY-2 synovial sarcoma (RRID:CVCL 8719), SYO-1 synovial sarcoma (RRID:CVCL_7146), MPNST malignant peripheral neural sheath tumor were obtained from the Sloan Kettering Institute. The following established cell lines were purchased from the American Type Culture Collection (ATCC, Manassas, VA), Sor the received from the NCI repository:, PANC-1 pancreatic carcinoma (CRL-1469, RRID:CVCL_0480), OVCAR-5 ovarian carcinoma (RRID:CVCL_1628), OVCAR-8 ovarian carcinoma (RRID:CVCL_1629), , MCF-7 breast carcinoma (CRL-12584, RRID:CVCL_0031), MDA-MB-231 breast carcinoma (CRL-12532, RRID:CVCL_0062), NCI-H1876 small cell lung carcinoma (CRL-5902, RRID:CVCL_1503), NCI-H510A small cell lung carcinoma (HTB-184, RRID:CVCL_1565), NCI-H1417 (CRL-5869, RRID:CVCL_1469), and NCI-H196 small cell lung carcinoma (CRL-5823, RRID:CVCL_1509). Dr. Peter Houghton (Greehey Children's Cancer Research Institute, University of Texas Health Science Center, San Antonio, TX) provided Rh-18 rhabdomyosarcoma (RRID:CVCL_1659). Pooled donor human umbilical vein endothelial cells (HUVEC, Lonza, cat. CC-2519) and human mesenchymal stem cells (hMSC, Lonza, cat. PT-2501) were purchased from Lonza (Walkersville, MD).
Cell Culture. […]

[1] = second compound 0.00949 µM, first compound 0.00316 µM
[2] = second compound 0.00949 µM, first compound 0.01 µM
[3] = second compound 0.00949 µM, first compound 0.0316 µM
[4] = second compound 0.00949 µM, first compound 0.1 µM
[5] = second compound 0.00949 µM, first compound 0.316 µM
[6] = second compound 0.00949 µM, first compound 1 µM
[7] = second compound 0.03 µM, first compound 0.00316 µM
[8] = second compound 0.03 µM, first compound 0.01 µM
[9] = second compound 0.03 µM, first compound 0.0316 µM
[10] = second compound 0.03 µM, first compound 0.1 µM
[11] = second compound 0.03 µM, first compound 0.316 µM
[12] = second compound 0.03 µM, first compound 1 µM
[13] = second compound 0.0949 µM, first compound 0.00316 µM
[14] = second compound 0.0949 µM, first compound 0.01 µM
[15] = second compound 0.0949 µM, first compound 0.0316 µM
[16] = second compound 0.0949 µM, first compound 0.1 µM
[17] = second compound 0.0949 µM, first compound 0.316 µM
[18] = second compound 0.0949 µM, first compound 1 µM
[19] = second compound 0.3 µM, first compound 0.00316 µM
[20] = second compound 0.3 µM, first compound 0.01 µM
[21] = second compound 0.3 µM, first compound 0.0316 µM
[22] = second compound 0.3 µM, first compound 0.1 µM
[23] = second compound 0.3 µM, first compound 0.316 µM
[24] = second compound 0.3 µM, first compound 1 µM
[25] = second compound 0.949 µM, first compound 0.00316 µM
[26] = second compound 0.949 µM, first compound 0.01 µM
[27] = second compound 0.949 µM, first compound 0.0316 µM
[28] = second compound 0.949 µM, first compound 0.1 µM
[29] = second compound 0.949 µM, first compound 0.316 µM
[30] = second compound 0.949 µM, first compound 1 µM
[31] = second compound 3 µM, first compound 0.00316 µM
[32] = second compound 3 µM, first compound 0.01 µM
[33] = second compound 3 µM, first compound 0.0316 µM
[34] = second compound 3 µM, first compound 0.1 µM
[35] = second compound 3 µM, first compound 0.316 µM
[36] = second compound 3 µM, first compound 1 µM

CCN1CCN(Cc2ccc(Nc3ncc(F)c(-c4cc(F)c5nc(C)n(C(C)C)c5c4)n3)nc2)CC1 + CCN1C(C(=O)NC23CCC(C(=O)O)(CC2)CC3)C(c2cccc(Cl)c2F)C2(C(=O)Nc3cc(Cl)ccc32)C12CCCCC2
inactive: viability, T/C [1] 105% | viability, T/C [2] 105% | viability, T/C [3] 116% | viability, T/C [4] 119% | viability, T/C [5] 121% | viability, T/C [6] 102% | viability, T/C [7] 98.8% | viability, T/C [8] 101% | viability, T/C [9] 98.9% | viability, T/C [10] 117% | viability, T/C [11] 106% | viability, T/C [12] 73.1% | viability, T/C [13] 87% | viability, T/C [14] 85% | viability, T/C [15] 87.5% | viability, T/C [16] 88.6% | viability, T/C [17] 63% | viability, T/C [18] 19.5% | viability, T/C [19] 25.1% | viability, T/C [20] 20.8% | viability, T/C [21] 20.6% | viability, T/C [22] 16.5%
active: viability, T/C [23] 9.85% | viability, T/C [24] 2.81% | viability, T/C [25] 2.61% | viability, T/C [26] 2.87% | viability, T/C [27] 2.98% | viability, T/C [28] 4.27% | viability, T/C [29] 2.21% | viability, T/C [30] 1.42% | viability, T/C [31] 2.07% | viability, T/C [32] 1.29% | viability, T/C [33] 2.77% | viability, T/C [34] 1.88% | viability, T/C [35] 3.26% | viability, T/C [36] 2.37%
> 1000 nM: IC50 (second compound 0.00949 µM) | IC50 (second compound 0.03 µM)
446 nM: IC50 (second compound 0.0949 µM)
< 3.16 nM: IC50 (second compound 0.3 µM) | IC50 (second compound 0.949 µM) | IC50 (second compound 3 µM)

O=C(c1ccc(F)c(F)c1Nc1ccc(I)cc1F)N1CC(O)([C@@H]2CCCCN2)C1 + CCN1C(C(=O)NC23CCC(C(=O)O)(CC2)CC3)C(c2cccc(Cl)c2F)C2(C(=O)Nc3cc(Cl)ccc32)C12CCCCC2
inactive: viability, T/C [1] 115% | viability, T/C [2] 103% | viability, T/C [3] 99.9% | viability, T/C [4] 111% | viability, T/C [5] 107% | viability, T/C [6] 119% | viability, T/C [7] 96.5% | viability, T/C [8] 99.5% | viability, T/C [9] 102% | viability, T/C [10] 116% | viability, T/C [11] 116% | viability, T/C [12] 103% | viability, T/C [13] 83.5% | viability, T/C [14] 93.1% | viability, T/C [15] 94.5% | viability, T/C [16] 95% | viability, T/C [17] 93.5% | viability, T/C [18] 41.4% | viability, T/C [19] 30.4% | viability, T/C [20] 23.9% | viability, T/C [21] 24.8% | viability, T/C [22] 21.6% | viability, T/C [23] 10.2%
823 nM: IC50 (second compound 0.0949 µM)
active: viability, T/C [24] 0.94% | viability, T/C [25] 5.46% | viability, T/C [26] 5.3% | viability, T/C [27] 3.35% | viability, T/C [28] 1.43% | viability, T/C [29] 0.7% | viability, T/C [30] 0.15% | viability, T/C [31] 1.44% | viability, T/C [32] 2.44% | viability, T/C [33] 1.3% | viability, T/C [34] 0.81% | viability, T/C [35] 0.22% | viability, T/C [36] 0.42%
> 1000 nM: IC50 (second compound 0.00949 µM) | IC50 (second compound 0.03 µM)
< 3.16 nM: IC50 (second compound 0.3 µM) | IC50 (second compound 0.949 µM) | IC50 (second compound 3 µM)
